Test results as given in PubChem BioAssay (NCI).
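Values below derive from 48-hour exposures of cells grown in 96-well plates, with endpoints linearly interpolated between the two concentrations bracketing the appropriate inhibition level. The concentration for 50% growth inhibition is given as GI50. TGI: concentration producing complete growth inhibition.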

Assays:
Experiment in all cases: NCI-60 cell line screen, 48 h
786-0 renal = tested on: 786-0 renal
A498 renal = tested on: A498 renal
A549 NSCLC = tested on: A549 NSCLC
ACHN renal = tested on: ACHN renal
BT-549 breast = tested on: BT-549 breast
CAKI-1 renal = tested on: CAKI-1 renal
CCRF-CEM leukemia = tested on: CCRF-CEM leukemia
COLO 205 colon = tested on: COLO 205 colon
DU-145 prostate = tested on: DU-145 prostate
EKVX NSCLC = tested on: EKVX NSCLC
HCC-2998 colon = tested on: HCC-2998 colon
HCT-116 colon = tested on: HCT-116 colon
HCT-15 colon = tested on: HCT-15 colon
HL-60(TB) leukemia = tested on: HL-60(TB) leukemia
HOP-62 NSCLC = tested on: HOP-62 NSCLC
HOP-92 NSCLC = tested on: HOP-92 NSCLC
HS 578T breast = tested on: HS 578T breast
HT29 colon = tested on: HT29 colon
IGROV1 ovarian = tested on: IGROV1 ovarian
K-562 leukemia = tested on: K-562 leukemia
KM12 colon = tested on: KM12 colon
LOX IMVI melanoma = tested on: LOX IMVI melanoma
M14 melanoma = tested on: M14 melanoma
MALME-3M melanoma = tested on: MALME-3M melanoma
MCF7 breast = tested on: MCF7 breast
MDA-MB-231 breast = tested on: MDA-MB-231 breast
MDA-MB-435 = tested on: MDA-MB-435
MOLT-4 leukemia = tested on: MOLT-4 leukemia
NCI-H226 lung = tested on: NCI-H226 lung
NCI-H23 lung = tested on: NCI-H23 lung
NCI-H460 lung = tested on: NCI-H460 lung
NCI-H522 lung = tested on: NCI-H522 lung
NCI/ADR-RES ovarian = tested on: NCI/ADR-RES ovarian
OVCAR-3 ovarian = tested on: OVCAR-3 ovarian
OVCAR-4 ovarian = tested on: OVCAR-4 ovarian
OVCAR-5 ovarian = tested on: OVCAR-5 ovarian
OVCAR-8 ovarian = tested on: OVCAR-8 ovarian
PC-3 prostate = tested on: PC-3 prostate
RPMI-8226 leukemia = tested on: RPMI-8226 leukemia
RXF 393 renal = tested on: RXF 393 renal
SF-268 CNS = tested on: SF-268 CNS
SF-295 CNS = tested on: SF-295 CNS
SF-539 CNS = tested on: SF-539 CNS
SK-MEL-2 melanoma = tested on: SK-MEL-2 melanoma
SK-MEL-28 melanoma = tested on: SK-MEL-28 melanoma
SK-MEL-5 melanoma = tested on: SK-MEL-5 melanoma
SK-OV-3 ovarian = tested on: SK-OV-3 ovarian
SN12C renal = tested on: SN12C renal
SNB-19 CNS = tested on: SNB-19 CNS
SNB-75 CNS = tested on: SNB-75 CNS
SR leukemia = tested on: SR leukemia
SW-620 colon = tested on: SW-620 colon
T-47D breast = tested on: T-47D breast
TK-10 renal = tested on: TK-10 renal
U251 CNS = tested on: U251 CNS
UACC-257 melanoma = tested on: UACC-257 melanoma
UACC-62 melanoma = tested on: UACC-62 melanoma
UO-31 renal = tested on: UO-31 renal

COC1=C(C)C(=O)N2[C@@H]1[C@H](c1ccccc1)OC21C=CC(=O)C=C1
GI50 (786-0 renal): 2.86 µM
TGI (786-0 renal): 8.22 µM
GI50 (A498 renal): 27.4 µM
TGI (A498 renal): > 89.4 µM
GI50 (A549 NSCLC): 10.8 µM
TGI (A549 NSCLC): 38.9 µM
GI50 (ACHN renal): 0.658 µM
TGI (ACHN renal): 1.36 µM
GI50 (BT-549 breast): 2.97 µM
TGI (BT-549 breast): 9.47 µM
GI50 (CAKI-1 renal): 0.804 µM
TGI (CAKI-1 renal): 2.39 µM
GI50 (CCRF-CEM leukemia): 0.925 µM
TGI (CCRF-CEM leukemia): 3.87 µM
GI50 (COLO 205 colon): 2.56 µM
TGI (COLO 205 colon): 7.81 µM
GI50 (DU-145 prostate): 3.69 µM
TGI (DU-145 prostate): 19.1 µM
GI50 (EKVX NSCLC): 10.7 µM
TGI (EKVX NSCLC): > 33.8 µM
GI50 (HCC-2998 colon): 5.86 µM
TGI (HCC-2998 colon): 10.9 µM
GI50 (HCT-116 colon): 0.984 µM
TGI (HCT-116 colon): 3.81 µM
GI50 (HCT-15 colon): 0.697 µM
TGI (HCT-15 colon): 2.21 µM
GI50 (HL-60(TB) leukemia): 0.922 µM
TGI (HL-60(TB) leukemia): 4.57 µM
GI50 (HOP-62 NSCLC): 10.8 µM
TGI (HOP-62 NSCLC): 24.9 µM
GI50 (HOP-92 NSCLC): 2.48 µM
TGI (HOP-92 NSCLC): 7.65 µM
GI50 (HS 578T breast): 12.5 µM
TGI (HS 578T breast): > 40.9 µM
GI50 (HT29 colon): 1.28 µM
TGI (HT29 colon): 4.28 µM
GI50 (IGROV1 ovarian): 6.83 µM
TGI (IGROV1 ovarian): 21.7 µM
GI50 (K-562 leukemia): 1.11 µM
TGI (K-562 leukemia): > 67 µM
GI50 (KM12 colon): 5.99 µM
TGI (KM12 colon): 12.9 µM
GI50 (LOX IMVI melanoma): 0.757 µM
TGI (LOX IMVI melanoma): 2.69 µM
GI50 (M14 melanoma): 4.39 µM
TGI (M14 melanoma): 12.5 µM
GI50 (MALME-3M melanoma): 1.08 µM
TGI (MALME-3M melanoma): 4.32 µM
GI50 (MCF7 breast): 1.07 µM
TGI (MCF7 breast): 5.39 µM
GI50 (MDA-MB-231 breast): 2.77 µM
TGI (MDA-MB-231 breast): 9.27 µM
GI50 (MDA-MB-435): 1.97 µM
TGI (MDA-MB-435): 7.32 µM
GI50 (MOLT-4 leukemia): 2.23 µM
TGI (MOLT-4 leukemia): 11 µM
GI50 (NCI-H226 lung): 9.79 µM
TGI (NCI-H226 lung): > 31.1 µM
GI50 (NCI-H23 lung): 4.07 µM
TGI (NCI-H23 lung): 18.5 µM
GI50 (NCI-H460 lung): 8.13 µM
TGI (NCI-H460 lung): 21.8 µM
GI50 (NCI-H522 lung): 0.555 µM
TGI (NCI-H522 lung): 1.35 µM
GI50 (NCI/ADR-RES ovarian): 3.36 µM
TGI (NCI/ADR-RES ovarian): > 47.4 µM
GI50 (OVCAR-3 ovarian): 1.09 µM
TGI (OVCAR-3 ovarian): 3.74 µM
GI50 (OVCAR-4 ovarian): 3.51 µM
TGI (OVCAR-4 ovarian): 16.6 µM
GI50 (OVCAR-5 ovarian): 3.78 µM
TGI (OVCAR-5 ovarian): 11.6 µM
GI50 (OVCAR-8 ovarian): 1.1 µM
TGI (OVCAR-8 ovarian): > 36.5 µM
GI50 (PC-3 prostate): 7.81 µM
TGI (PC-3 prostate): > 32 µM
GI50 (RPMI-8226 leukemia): 1.33 µM
TGI (RPMI-8226 leukemia): 8.44 µM
GI50 (RXF 393 renal): 1.42 µM
TGI (RXF 393 renal): 6.26 µM
GI50 (SF-268 CNS): 8.89 µM
TGI (SF-268 CNS): 31.9 µM
GI50 (SF-295 CNS): 15.5 µM
TGI (SF-295 CNS): 46.9 µM
GI50 (SF-539 CNS): 4.73 µM
TGI (SF-539 CNS): 11.5 µM
GI50 (SK-MEL-2 melanoma): 6.92 µM
TGI (SK-MEL-2 melanoma): 19.6 µM
GI50 (SK-MEL-28 melanoma): 1.2 µM
TGI (SK-MEL-28 melanoma): 6.68 µM
GI50 (SK-MEL-5 melanoma): 5.05 µM
TGI (SK-MEL-5 melanoma): 9.94 µM
GI50 (SK-OV-3 ovarian): > 41.9 µM
TGI (SK-OV-3 ovarian): > 100 µM
GI50 (SN12C renal): 3.64 µM
TGI (SN12C renal): 27.7 µM
GI50 (SNB-19 CNS): 42.8 µM
TGI (SNB-19 CNS): > 100 µM
GI50 (SNB-75 CNS): 12.1 µM
TGI (SNB-75 CNS): 50 µM
GI50 (SR leukemia): 0.673 µM
TGI (SR leukemia): 15.5 µM
GI50 (SW-620 colon): 0.923 µM
TGI (SW-620 colon): 2.78 µM
GI50 (T-47D breast): 1.73 µM
TGI (T-47D breast): 9.99 µM
GI50 (TK-10 renal): 1.41 µM
TGI (TK-10 renal): 6.29 µM
GI50 (U251 CNS): 5.61 µM
TGI (U251 CNS): 11 µM
GI50 (UACC-257 melanoma): 4.97 µM
TGI (UACC-257 melanoma): 15.5 µM
GI50 (UACC-62 melanoma): 1.35 µM
TGI (UACC-62 melanoma): 5.51 µM
GI50 (UO-31 renal): 1.31 µM
TGI (UO-31 renal): 3.88 µM
